Data on five compounds can be found in patent US11358949B2, “Carbamate and urea compounds as multikinase inhibitors” (ANGEX PHARMACEUTICAL, INC., priority 2017, dated 2022).

Bounds are passed on as bounds.

Usually IC50 stands for the concentration that inhibits the measured activity by half. Higher therefore signals a need for much substance.

Assay [1] has as its target T1, AXL (Homo sapiens, UniProt P30530).
T1 sequence (P30530 26-894): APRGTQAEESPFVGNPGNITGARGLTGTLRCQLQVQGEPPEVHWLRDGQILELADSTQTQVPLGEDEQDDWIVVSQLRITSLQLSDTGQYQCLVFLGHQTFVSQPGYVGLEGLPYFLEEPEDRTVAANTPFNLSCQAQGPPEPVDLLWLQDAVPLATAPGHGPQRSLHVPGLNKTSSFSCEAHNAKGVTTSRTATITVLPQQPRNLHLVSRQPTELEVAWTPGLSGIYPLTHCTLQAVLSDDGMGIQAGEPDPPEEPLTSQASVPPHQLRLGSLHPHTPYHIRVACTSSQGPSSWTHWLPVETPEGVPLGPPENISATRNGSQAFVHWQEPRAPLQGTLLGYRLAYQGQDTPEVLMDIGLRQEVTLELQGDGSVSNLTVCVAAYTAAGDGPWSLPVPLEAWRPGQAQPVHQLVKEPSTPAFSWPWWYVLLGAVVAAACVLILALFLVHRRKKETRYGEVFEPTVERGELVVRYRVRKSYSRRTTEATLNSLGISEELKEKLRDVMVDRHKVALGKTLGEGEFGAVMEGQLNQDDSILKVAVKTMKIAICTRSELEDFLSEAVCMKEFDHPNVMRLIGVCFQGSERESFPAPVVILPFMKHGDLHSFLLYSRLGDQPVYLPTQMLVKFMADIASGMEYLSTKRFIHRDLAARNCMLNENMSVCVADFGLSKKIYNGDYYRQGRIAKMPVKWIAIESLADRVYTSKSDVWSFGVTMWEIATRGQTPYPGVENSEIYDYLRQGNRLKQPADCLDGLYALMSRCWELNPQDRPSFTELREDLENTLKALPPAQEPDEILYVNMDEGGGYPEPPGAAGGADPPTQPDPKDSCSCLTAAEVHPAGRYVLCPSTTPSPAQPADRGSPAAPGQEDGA
The experiment in a line: HotSpot Kinase Assay, AXL.

The target in assay [2] is FMS (Homo sapiens, UniProt P07333). The experiment in a line: HotSpot Kinase Assay, FMS.
Sequence of FMS (P07333 20-972): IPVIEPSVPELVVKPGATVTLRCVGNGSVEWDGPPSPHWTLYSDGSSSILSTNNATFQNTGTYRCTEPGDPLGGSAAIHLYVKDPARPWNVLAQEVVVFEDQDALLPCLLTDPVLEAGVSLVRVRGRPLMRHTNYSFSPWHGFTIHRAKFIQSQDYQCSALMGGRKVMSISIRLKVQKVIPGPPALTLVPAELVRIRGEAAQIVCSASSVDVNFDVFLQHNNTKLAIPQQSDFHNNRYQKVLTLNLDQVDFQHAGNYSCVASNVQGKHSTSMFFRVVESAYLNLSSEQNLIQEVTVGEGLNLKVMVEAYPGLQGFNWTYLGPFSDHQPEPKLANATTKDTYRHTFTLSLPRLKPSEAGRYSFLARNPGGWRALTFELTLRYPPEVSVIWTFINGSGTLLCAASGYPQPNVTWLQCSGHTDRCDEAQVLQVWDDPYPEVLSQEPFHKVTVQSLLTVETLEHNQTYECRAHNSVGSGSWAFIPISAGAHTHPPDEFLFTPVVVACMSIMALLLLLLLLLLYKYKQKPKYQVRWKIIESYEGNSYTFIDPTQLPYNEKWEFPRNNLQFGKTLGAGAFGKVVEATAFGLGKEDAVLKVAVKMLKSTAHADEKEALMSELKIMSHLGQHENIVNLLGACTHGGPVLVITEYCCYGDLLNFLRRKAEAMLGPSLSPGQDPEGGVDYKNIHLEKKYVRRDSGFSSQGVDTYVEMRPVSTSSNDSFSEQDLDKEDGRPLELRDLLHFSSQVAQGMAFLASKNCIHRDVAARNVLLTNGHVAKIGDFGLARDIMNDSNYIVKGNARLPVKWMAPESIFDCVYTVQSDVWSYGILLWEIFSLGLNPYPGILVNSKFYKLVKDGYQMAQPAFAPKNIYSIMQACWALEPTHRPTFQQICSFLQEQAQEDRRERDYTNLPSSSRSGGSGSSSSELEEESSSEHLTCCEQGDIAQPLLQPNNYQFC
The target of assay [3] is DDR1 (Homo sapiens, UniProt Q08345). The experiment in a line: HotSpot Kinase Assay, DDR1.
Sequence of DDR1 (Q08345 19-913): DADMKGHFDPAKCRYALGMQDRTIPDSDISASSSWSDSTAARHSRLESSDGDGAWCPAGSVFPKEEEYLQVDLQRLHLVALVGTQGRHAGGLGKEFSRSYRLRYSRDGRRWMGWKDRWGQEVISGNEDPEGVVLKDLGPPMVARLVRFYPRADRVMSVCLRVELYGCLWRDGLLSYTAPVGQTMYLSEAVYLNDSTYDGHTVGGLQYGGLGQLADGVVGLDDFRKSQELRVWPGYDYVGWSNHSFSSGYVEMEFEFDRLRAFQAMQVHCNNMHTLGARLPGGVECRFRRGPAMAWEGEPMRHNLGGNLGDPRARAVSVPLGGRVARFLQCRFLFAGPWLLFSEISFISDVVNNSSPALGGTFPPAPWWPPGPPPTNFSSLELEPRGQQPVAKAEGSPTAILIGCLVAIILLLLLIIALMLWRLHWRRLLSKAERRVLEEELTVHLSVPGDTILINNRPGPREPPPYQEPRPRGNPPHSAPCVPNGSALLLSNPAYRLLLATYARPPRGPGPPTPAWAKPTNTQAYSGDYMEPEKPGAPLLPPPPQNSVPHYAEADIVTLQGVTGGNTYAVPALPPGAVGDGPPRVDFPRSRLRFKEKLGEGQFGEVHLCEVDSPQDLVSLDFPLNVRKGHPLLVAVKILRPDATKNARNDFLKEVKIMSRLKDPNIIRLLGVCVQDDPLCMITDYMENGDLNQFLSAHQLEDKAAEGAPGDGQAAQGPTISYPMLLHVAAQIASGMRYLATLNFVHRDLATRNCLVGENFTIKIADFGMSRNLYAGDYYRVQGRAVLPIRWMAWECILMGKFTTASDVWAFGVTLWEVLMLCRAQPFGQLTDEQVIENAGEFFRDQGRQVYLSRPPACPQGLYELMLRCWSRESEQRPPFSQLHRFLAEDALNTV
Assay [4] concerns the target c-Kit (Homo sapiens, UniProt P10721). Nature of the assay: HotSpot Kinase Assay, c-Kit.
Assay [5] deals with T2, c-MER (Homo sapiens, UniProt Q12866).
T2 sequence (Q12866 21-999): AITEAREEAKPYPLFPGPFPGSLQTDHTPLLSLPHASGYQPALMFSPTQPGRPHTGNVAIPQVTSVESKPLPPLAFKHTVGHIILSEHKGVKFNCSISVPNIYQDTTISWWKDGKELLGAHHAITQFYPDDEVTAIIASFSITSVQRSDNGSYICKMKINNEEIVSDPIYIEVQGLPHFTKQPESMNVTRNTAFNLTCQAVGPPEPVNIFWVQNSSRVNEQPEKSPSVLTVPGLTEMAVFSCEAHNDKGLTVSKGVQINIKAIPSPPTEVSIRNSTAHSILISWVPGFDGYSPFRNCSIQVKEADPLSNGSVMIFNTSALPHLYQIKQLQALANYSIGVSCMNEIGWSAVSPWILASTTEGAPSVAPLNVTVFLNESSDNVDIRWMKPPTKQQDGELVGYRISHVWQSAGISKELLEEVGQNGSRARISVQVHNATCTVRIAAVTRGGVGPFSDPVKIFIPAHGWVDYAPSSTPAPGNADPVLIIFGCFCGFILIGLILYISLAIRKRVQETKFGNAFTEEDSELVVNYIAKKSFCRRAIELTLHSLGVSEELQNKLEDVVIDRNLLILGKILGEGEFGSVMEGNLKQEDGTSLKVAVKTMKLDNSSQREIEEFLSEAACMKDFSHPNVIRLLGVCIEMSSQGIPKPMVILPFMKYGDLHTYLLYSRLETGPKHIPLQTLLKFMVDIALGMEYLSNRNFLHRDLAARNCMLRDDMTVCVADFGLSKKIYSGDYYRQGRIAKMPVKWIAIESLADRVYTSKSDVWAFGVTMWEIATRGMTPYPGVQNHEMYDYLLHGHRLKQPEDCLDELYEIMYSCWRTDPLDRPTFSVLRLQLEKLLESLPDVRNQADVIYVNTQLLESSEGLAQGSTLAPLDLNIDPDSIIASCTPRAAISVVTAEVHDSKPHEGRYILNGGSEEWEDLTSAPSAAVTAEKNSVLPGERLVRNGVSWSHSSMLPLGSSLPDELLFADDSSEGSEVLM
The experiment in a line: HotSpot Kinase Assay, c-MER.

The target of assay [6] is c-MET (Homo sapiens, UniProt P08581). Nature of the assay: HotSpot Kinase Assay, c-MET.
Assay [7] deals with EPHA2 (Homo sapiens, UniProt P29317). Nature of the assay: HotSpot Kinase Assay, EPHA2.
Sequence of EPHA2 (P29317 24-976): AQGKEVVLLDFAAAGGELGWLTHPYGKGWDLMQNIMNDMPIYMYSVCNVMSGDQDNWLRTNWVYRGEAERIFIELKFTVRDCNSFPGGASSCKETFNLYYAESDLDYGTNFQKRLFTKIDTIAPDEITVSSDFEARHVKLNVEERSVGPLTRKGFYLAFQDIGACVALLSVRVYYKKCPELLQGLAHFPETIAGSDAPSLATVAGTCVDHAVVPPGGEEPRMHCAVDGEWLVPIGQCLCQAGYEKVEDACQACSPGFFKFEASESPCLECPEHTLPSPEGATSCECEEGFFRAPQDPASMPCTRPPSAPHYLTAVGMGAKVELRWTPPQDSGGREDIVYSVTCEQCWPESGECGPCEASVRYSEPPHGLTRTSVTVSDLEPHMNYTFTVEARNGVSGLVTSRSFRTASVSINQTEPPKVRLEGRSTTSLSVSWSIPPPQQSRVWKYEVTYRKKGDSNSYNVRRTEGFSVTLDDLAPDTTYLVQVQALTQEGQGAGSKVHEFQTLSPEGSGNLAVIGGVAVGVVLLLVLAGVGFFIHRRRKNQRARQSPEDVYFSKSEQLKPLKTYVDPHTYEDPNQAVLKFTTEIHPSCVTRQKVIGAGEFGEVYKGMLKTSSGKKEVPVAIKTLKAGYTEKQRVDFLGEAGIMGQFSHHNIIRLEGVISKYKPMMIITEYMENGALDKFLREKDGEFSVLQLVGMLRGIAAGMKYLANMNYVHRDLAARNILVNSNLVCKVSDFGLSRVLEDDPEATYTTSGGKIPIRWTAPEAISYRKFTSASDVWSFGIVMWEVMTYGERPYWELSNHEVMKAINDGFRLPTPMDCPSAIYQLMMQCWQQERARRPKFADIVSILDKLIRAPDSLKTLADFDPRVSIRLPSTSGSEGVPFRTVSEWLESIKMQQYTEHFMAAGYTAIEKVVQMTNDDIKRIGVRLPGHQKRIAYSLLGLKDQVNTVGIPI
For assay [8], the target named is LOK/STK10 (Homo sapiens, UniProt O94804). The experiment in a line: HotSpot Kinase Assay, LOK/STK10.
Sequence of LOK/STK10 (O94804 whole entry): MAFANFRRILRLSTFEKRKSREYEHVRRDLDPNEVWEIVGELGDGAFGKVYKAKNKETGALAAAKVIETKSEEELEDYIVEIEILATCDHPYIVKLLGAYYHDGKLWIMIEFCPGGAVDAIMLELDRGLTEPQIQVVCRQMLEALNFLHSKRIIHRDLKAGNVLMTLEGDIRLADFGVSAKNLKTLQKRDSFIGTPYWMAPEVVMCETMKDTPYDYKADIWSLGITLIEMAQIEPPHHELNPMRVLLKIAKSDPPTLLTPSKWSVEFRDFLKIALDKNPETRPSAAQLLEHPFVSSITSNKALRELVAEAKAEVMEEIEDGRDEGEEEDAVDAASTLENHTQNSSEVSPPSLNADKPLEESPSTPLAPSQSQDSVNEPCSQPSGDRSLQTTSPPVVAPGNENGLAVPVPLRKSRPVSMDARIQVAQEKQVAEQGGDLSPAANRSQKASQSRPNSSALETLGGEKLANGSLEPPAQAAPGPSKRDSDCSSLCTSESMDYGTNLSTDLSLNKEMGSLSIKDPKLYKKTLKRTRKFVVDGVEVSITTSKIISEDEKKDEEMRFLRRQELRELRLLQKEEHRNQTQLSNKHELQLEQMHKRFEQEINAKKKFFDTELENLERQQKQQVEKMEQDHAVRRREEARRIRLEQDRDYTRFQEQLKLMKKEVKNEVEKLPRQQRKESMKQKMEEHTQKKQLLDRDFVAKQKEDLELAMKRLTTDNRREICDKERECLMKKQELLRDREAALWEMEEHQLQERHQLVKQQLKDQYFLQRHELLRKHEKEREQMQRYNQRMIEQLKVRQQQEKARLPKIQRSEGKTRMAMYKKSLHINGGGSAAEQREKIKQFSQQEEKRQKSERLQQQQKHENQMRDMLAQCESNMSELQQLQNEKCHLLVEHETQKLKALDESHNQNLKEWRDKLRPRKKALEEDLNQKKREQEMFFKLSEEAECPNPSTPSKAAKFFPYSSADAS
The target of assay [9] is T3, TYRO3/SKY (Homo sapiens, UniProt Q06418).
T3 sequence (Q06418 41-890): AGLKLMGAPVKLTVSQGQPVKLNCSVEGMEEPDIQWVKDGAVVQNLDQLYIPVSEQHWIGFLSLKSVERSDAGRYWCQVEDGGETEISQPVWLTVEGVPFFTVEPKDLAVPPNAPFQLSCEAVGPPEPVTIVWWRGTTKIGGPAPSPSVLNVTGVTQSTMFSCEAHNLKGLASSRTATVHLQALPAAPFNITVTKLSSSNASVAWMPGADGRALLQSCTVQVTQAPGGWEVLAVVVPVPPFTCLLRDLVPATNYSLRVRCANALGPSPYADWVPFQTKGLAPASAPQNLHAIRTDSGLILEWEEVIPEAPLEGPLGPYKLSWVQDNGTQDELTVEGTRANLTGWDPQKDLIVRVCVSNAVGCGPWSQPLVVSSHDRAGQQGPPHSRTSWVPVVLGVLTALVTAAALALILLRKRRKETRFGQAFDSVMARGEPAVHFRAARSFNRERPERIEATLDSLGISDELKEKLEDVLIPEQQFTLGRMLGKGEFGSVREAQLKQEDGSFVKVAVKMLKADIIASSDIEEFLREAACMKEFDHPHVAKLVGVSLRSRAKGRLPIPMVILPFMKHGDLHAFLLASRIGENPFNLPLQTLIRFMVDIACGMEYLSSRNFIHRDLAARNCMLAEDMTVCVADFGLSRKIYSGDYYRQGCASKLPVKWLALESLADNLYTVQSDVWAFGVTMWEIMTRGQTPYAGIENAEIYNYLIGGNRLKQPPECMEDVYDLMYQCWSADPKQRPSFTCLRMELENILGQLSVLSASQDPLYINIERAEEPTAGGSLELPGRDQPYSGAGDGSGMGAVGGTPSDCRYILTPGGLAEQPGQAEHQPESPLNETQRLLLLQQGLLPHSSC
The experiment in a line: HotSpot Kinase Assay, TYRO3/SKY.

For assay [10], the target named is KDR/VEGFR2 (Homo sapiens, UniProt P35968). Nature of the assay: HotSpot Kinase Assay, KDR/VEGFR2.

Sequence of c-Kit (P10721 26-976): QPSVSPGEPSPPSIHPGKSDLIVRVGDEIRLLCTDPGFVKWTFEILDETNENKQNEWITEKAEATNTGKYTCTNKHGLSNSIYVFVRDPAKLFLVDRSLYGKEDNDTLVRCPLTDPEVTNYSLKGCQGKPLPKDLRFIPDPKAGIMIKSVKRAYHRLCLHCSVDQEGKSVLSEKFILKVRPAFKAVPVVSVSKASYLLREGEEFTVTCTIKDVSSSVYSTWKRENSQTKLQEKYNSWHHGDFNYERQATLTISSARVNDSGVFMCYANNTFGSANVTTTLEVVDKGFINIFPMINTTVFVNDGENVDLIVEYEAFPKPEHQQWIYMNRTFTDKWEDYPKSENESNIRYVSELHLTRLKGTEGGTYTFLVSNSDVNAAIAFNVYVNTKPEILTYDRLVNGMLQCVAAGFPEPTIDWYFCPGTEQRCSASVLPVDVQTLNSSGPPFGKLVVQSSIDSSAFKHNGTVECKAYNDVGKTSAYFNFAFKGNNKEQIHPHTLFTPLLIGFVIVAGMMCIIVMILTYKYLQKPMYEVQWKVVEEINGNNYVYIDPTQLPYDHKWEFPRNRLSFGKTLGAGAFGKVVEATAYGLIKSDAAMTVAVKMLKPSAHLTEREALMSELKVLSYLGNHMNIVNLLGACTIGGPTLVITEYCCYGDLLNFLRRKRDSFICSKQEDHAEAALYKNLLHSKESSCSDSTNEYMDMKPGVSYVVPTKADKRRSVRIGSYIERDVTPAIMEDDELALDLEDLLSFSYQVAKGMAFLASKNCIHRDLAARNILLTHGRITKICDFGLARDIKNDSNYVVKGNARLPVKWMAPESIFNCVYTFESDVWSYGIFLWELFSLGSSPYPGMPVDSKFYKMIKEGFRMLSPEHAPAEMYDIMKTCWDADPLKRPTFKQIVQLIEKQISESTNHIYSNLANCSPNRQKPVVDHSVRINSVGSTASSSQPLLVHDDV

As to `COc1cc2c(Oc3ccc(NC(=O)C4(C(=O)Nc5ccc(F)cc5)CC4)cc3)ccnc2cc1N1CCNC1=O` [Compound 10-2], the IC50 in assay [1], in assay [2], in assay [3], in [4], in assay [5] and in assay [6] was below 0.1 µM each time. For the same compound, the IC50 in assay [7], in assay [8], in assay [9] and in assay [10] was 0.1 to 1 µM each time.

Consider `COc1cc2c(Oc3ccc(NC(=O)C4(C(=O)Nc5ccc(F)cc5)CC4)cc3)ccnc2cc1OC(=O)N1CC[C@H](O)C1` [Compound 2-5], for which the IC50 in assay [1] was below 0.1 µM; in assay [2] it was 0.1 to 1 µM; in assay [3] it was below 0.1 µM; in assay [4], below 0.1 µM; in assay [5], below 0.1 µM; in assay [6], below 0.1 µM. The IC50 is 0.1 to 1 µM in assay [7], 0.1 to 1 µM in assay [8], above 1 µM in [9] and above 1 µM in assay [10].

Turning to `COc1cc2c(Oc3ccc(NC(=O)C4(C(=O)Nc5ccc(F)cc5)CC4)cc3)ccnc2cc1OC(=O)N1CC[C@@H](O)C1` [Compound 2-4], the IC50 in [1] was below 0.1 µM; in assay [2], 0.1 to 1 µM; in assay [3], below 0.1 µM; in assay [4] it was below 0.1 µM; in [5] it was below 0.1 µM; in [6], below 0.1 µM. The IC50 in assay [7] was 0.1 to 1 µM; in assay [8], 0.1 to 1 µM; in assay [9], above 1 µM; in [10], above 1 µM.

Take `COc1cc2c(Oc3ccc(NC(=O)C4(C(=O)Nc5ccc(F)cc5)CC4)cc3)ccnc2cc1OC(=O)N1CCOCC1` [Compound 1-17]: the IC50 in assay [1] was 0.1 to 1 µM; in assay [2], 0.1 to 1 µM; in [3] it was below 0.1 µM; in assay [4], below 0.1 µM; in [5], below 0.1 µM; in [6], below 0.1 µM. In addition, the IC50 was 0.1 to 1 µM in [7], 0.1 to 1 µM in assay [8], above 1 µM in assay [9] and 0.1 to 1 µM in assay [10].

As to `COc1cc2c(Oc3ccc(NC(=O)C4(C(=O)Nc5ccc(F)cc5)CC4)cc3)ccnc2cc1OC(=O)N1[C@H](C)CNC[C@@H]1C` [Compound 6-2], the IC50 was below 0.1 µM in assay [1]; 0.1 to 1 µM in assay [2]; below 0.1 µM in [3]; below 0.1 µM in [4]; 0.1 to 1 µM in assay [5]; 0.1 to 1 µM in assay [6]. Moreover, the IC50 in assay [7], in assay [8], in assay [9] and in [10] was 0.1 to 1 µM throughout.
